Reference: patent US4348264A, “Photocatalyzed process for producing carbapenams and carbapen-2-ems” (Pfizer Inc., priority 1981, dated 1982)
In brackets after ≈: the same amount, converted by molar mass.

Key:
Format in all cases: cell-based
Citrobacter diversus = assay: Serial dilution-tube method, MIC; conditions: Citrobacter koseri; brain heart infusion broth; read-out: Minimum Inhibitory Concentration
[1] = tested on: Staphylococcus aureus (Antibiotic Resistant); assay: Serial dilution-tube method, MIC; set-up: key to synergistic effect with ampicillin: Shows a synergistic effect when tested 1:1 with ampicillin; conditions: for MIC: Staphylococcus aureus, brain heart infusion broth, read-out: Minimum Inhibitory Concentration
Serratia marcescens = assay: Serial dilution-tube method, MIC; conditions: Serratia marcescens; brain heart infusion broth; read-out: Minimum Inhibitory Concentration
Escherichia coli [2] = assay: Serial dilution-tube method, MIC; conditions: Escherichia coli; brain heart infusion broth; read-out: Minimum Inhibitory Concentration
Enterobacter cloacae = assay: Serial dilution-tube method, MIC; conditions: Enterobacter cloacae; brain heart infusion broth; read-out: Minimum Inhibitory Concentration
[3] = tested on: Escherichia coli (Antibiotic Resistant); assay: Serial dilution-tube method, MIC; conditions: Escherichia coli, brain heart infusion broth, read-out: Minimum Inhibitory Concentration
Proteus morgani = assay: Serial dilution-tube method, MIC; conditions: brain heart infusion broth; read-out: Minimum Inhibitory Concentration
[4] = tested on: Staphylococcus aureus (Antibiotic Resistant); assay: Standard disc-plate method, zone of inhibition; conditions: Staphylococcus aureus; 25 microgram discs; antibiotic resistant
From the text: (§1) The utility of the various compounds as intermediates to other compounds of the present invention will be evident from the preceding discussion. The antibacterial activity of these compounds, reflecting their utility in the control of susceptible bacterial infections in man and animals, as animal feed additives for promotion of growth, or as preservatives of materials biodegraded by susceptible microorganisms, is best measured by the standard disc-plate method routinely employed in clinical laboratories for determining the sensitivity of microorganisms to antimicrobial substances. Sensitivity discs are prepared by dipping a standard 6.25 mm. paper disc into a solution of the compound to be tested (conc. 1 mg./ml.) in a volatile solvent (e.g. methylene chloride) and the disc dried, producing discs containing approximately 25 microg. of the compound. The discs are placed on the surface of agar growth media seeded with the test microorganism, previously plated into Petri dishes. The plates are incubated overnight at 35°-37° C. Activity of the test compound is reflected by a zone of inhibition of bacterial growth around the test disc. The diameter of this zone provides a quantitative measure of the activity of the antibacterial substance. The activity of various compounds of the present invention is summarized in Table I. For comparison, results obtained with 10 microg. discs of ampicillin and penicillin G are included as positive controls.

Escherichia coli [5] = assay: Standard disc-plate method, zone of inhibition; conditions: Escherichia coli, 25 microgram discs
From the text: as §1

Bacillus subtilis = assay: Standard disc-plate method, zone of inhibition; conditions: Bacillus subtilis; 25 microgram discs
From the text: as §1

Micrococcus luteus = assay: Standard disc-plate method, zone of inhibition; conditions: Micrococcus luteus; 25 microgram discs
From the text: as §1

Staphylococcus aureus [6] = assay: Standard disc-plate method, zone of inhibition; conditions: Staphylococcus aureus; 25 microgram discs
From the text: as §1

Vibrio percolans = assay: Standard disc-plate method, zone of inhibition; conditions: Comamonas terrigena, 25 microgram discs
From the text: as §1

Staphylococcus aureus [7] = assay: Serial dilution-tube method, MIC; conditions: Staphylococcus aureus; brain heart infusion broth; read-out: Minimum Inhibitory Concentration
Pseudomonas aeruginosa = assay: Serial dilution-tube method, MIC; conditions: Pseudomonas aeruginosa; brain heart infusion broth; read-out: Minimum Inhibitory Concentration
Klebsiella pneumoniae = assay: Serial dilution-tube method, MIC; conditions: Klebsiella pneumoniae; brain heart infusion broth; read-out: Minimum Inhibitory Concentration

MIC (Citrobacter diversus)	MIC [1]	MIC (Serratia marcescens)	MIC (Escherichia coli [2])	MIC (Enterobacter cloacae)	MIC [3]	MIC (Proteus morgani)	MIC (Staphylococcus aureus [7])	MIC (Pseudomonas aeruginosa)	MIC (Klebsiella pneumoniae)	SMILES	zone of inhibition at 25 µg/disc [4]	zone of inhibition at 25 µg/disc (Escherichia coli [5])	zone of inhibition at 25 µg/disc (Bacillus subtilis)	zone of inhibition at 25 µg/disc (Micrococcus luteus)	zone of inhibition at 25 µg/disc (Staphylococcus aureus [6])	zone of inhibition at 25 µg/disc (Vibrio percolans)	synergistic effect with ampicillin ([1]; tested 1:1 with ampicillin)
> 200 µg/mL	> 200 µg/mL	> 200 µg/mL	> 200 µg/mL	> 200 µg/mL	> 200 µg/mL	> 200 µg/mL	> 200 µg/mL	> 200 µg/mL	> 200 µg/mL	CC1=C(C(=O)OCOC(=O)C(C)(C)C)N2C(=O)CC2C1=O (centres unmarked) [H H POM CH3 O II, Pivaloyloxymethyl 2-Methyl-1-oxocarbapen-2-em-3-carboxylate]	18 mm	0 mm	37 mm	26 mm	22 mm	14 mm	–
> 200 µg/mL	200 µg/mL	> 200 µg/mL	> 200 µg/mL	> 200 µg/mL	> 200 µg/mL	> 200 µg/mL	25 µg/mL (≈ 55.7 µM)	> 200 µg/mL	> 200 µg/mL	CC1C(O)C2C(NC(=O)COc3ccccc3)C(=O)N2C1C(=O)OCOC(=O)C(C)(C)C (centres unmarked) [PMA H POM CH3 H OH I, Pivaloyloxymethyl 1-Hydroxy-2-methyl-6-(2-phenoxyacetamido)carbapenam-3-carboxylate]	17 mm	0 mm	23 mm	14 mm	20 mm	–	a

SMILES	MIC (Citrobacter diversus)	MIC [1]	MIC (Serratia marcescens)	MIC (Escherichia coli [2])	MIC (Enterobacter cloacae)	MIC [3]	MIC (Proteus morgani)	MIC (Staphylococcus aureus [7])	MIC (Pseudomonas aeruginosa)	MIC (Klebsiella pneumoniae)	zone of inhibition at 25 µg/disc [4]	zone of inhibition at 25 µg/disc (Escherichia coli [5])	zone of inhibition at 25 µg/disc (Bacillus subtilis)	zone of inhibition at 25 µg/disc (Micrococcus luteus)	zone of inhibition at 25 µg/disc (Staphylococcus aureus [6])	zone of inhibition at 25 µg/disc (Vibrio percolans)	synergistic effect with ampicillin ([1]; tested 1:1 with ampicillin)
CC(=O)OC1C(C)C(C(=O)OCOC(=O)C(C)(C)C)N2C(=O)C(NC(=O)COc3ccccc3)C12 (centres unmarked) [PMA H POM CH3 H OAc I, Pivaloyloxymethyl 1-Acetoxy-2-methyl-6-(2-phenoxyacetamido)carbapenam-3-carboxylate]	> 200 µg/mL	> 200 µg/mL	> 200 µg/mL	> 200 µg/mL	> 200 µg/mL	> 200 µg/mL	> 200 µg/mL	> 200 µg/mL	> 200 µg/mL	> 200 µg/mL	0 mm	0 mm	16 mm	0 mm	11 mm	–	–
